According to patent US20110237605A1, “Molecular Crystal of (4-(1,8-Naphthyridin-2-YL)Piperidin-1-YL)Pyrimidine Derivative” (priority 2010, published 2011):

Test: Physical (polymorph) stability of suspension to bead milling and autoclaving, followed by XRPD
Type: physicochemical
Experimental: The following experiment evidences such stability of the claimed molecular crystal.
A 30 mg/ml suspension of the compound having Formula I (referred to as “BOL-303050”) was made in PBS-0.15% Polysorbate 80 and put in a vial. The contents of the vial were milled by 1 mm zirconia milling beads for 5 times, 2 minutes each at 2400 rpm in a DAC 150 FV Speedmixer and shaken to suspend the drug. An aliquot was withdrawn for XRPD (see FIG. 4, suspension milled). The withdrawn aliquot was centrifuged and dried before XRPD scan.
The remainder of the vial contents was autoclaved at 121° c. for 30 minutes. After autoclaving another sample was removed for XRPD (see FIG. 4, suspension milled and autoclaved). Sample was centrifuged and dried before XRPD scan.
To the remaining sample, 1 mm zirconia milling beads were added and the sample was milled 5 times, for 2 minutes each at 2400 rpm in a DAC 150 FV Speedmixer. After bead milling, a sample was removed for XRPD (see FIG. 4, suspension milled, autoclaved then milled again). Sample was centrifuged and dried before XRPD scan.
The remainder was autoclaved at 121° C. for 30 minutes (see FIG. 4, suspension milled, autoclaved, milled again, then autoclaved). Sample was centrifuged and dried before XRPD scan.
Samples were compared to the XRPD spectrum of the original API sample.

effect of milling on drug polymorph by XRPD (1 mm zirconia milling beads, 5 times, 2 minutes each at 2400 rpm)	stability of crystal form, comparison of XRPD spectra (FIG. 4) (further milling and/or autoclaving)	SMILES	polymorphic change by XRPD on autoclaving (30 mg/ml suspension in PBS-0.15% Polysorbate 80, milled, autoclaved at 121° C. for 30 minutes (initial cycle))	effect of subsequent autoclaving on polymorph by XRPD (milled, autoclaved, milled again, then autoclaved at 121° C. for 30 minutes)
did not affect the drug polymorph		COc1ccc(S(=O)(=O)N[C@@H](CNc2nc(C)nc(N3CCC(c4ccc5c(n4)NCCC5)CC3)c2C)C(=O)O)cc1 [BOL-303050, (S)-3-(2,5-dimethyl-6-(4-(5,6,7,8-tetrahydro-1,8-naphthyridin-2-yl)piperidin-1-yl)pyrimidin-4-ylamino)-2-(4-methoxyphenylsulfonamido)propanoic acid]	polymorphic changes occurred only during the initial autoclave cycle	
	stable	COc1ccc(S(=O)(=O)N[C@@H](CNc2nc(C)nc(N3CCC(c4ccc5c(n4)NCCC5)CC3)c2C)C(=O)O)cc1 [claimed novel drug polymorph, (S)-3-(2,5-dimethyl-6-(4-(5,6,7,8-tetrahydro-1,8-naphthyridin-2-yl)piperidin-1-yl)pyrimidin-4-ylamino)-2-(4-methoxyphenylsulfonamido)propanoic acid]		did not affect the claimed novel drug polymorph
